Assay results from patent US7919495B2, “Pyridyl non-aromatic nitrogen-containing heterocyclic-1-carboxylate compound” (Astellas Pharma, Inc., priority 2005, dated 2011).
Counter-ions that a name gives are not always drawn. Like-named read-outs stand apart in the source and are kept apart here.

Legend:
[1] = target: T1, FAAH in human bladder epithelial cancer-derived cell line 5678 cells (Homo sapiens, UniProt O00519); assay: Screening for FAAH activity-inhibiting substance with human bladder epithelial cancer-derived cell (IC50, Table 64); format: cell-based
T1 construct: host or cells: human bladder epithelial cancer-derived cell line ('5678' [sic], HTB-9)
T1 sequence (O00519 1-579): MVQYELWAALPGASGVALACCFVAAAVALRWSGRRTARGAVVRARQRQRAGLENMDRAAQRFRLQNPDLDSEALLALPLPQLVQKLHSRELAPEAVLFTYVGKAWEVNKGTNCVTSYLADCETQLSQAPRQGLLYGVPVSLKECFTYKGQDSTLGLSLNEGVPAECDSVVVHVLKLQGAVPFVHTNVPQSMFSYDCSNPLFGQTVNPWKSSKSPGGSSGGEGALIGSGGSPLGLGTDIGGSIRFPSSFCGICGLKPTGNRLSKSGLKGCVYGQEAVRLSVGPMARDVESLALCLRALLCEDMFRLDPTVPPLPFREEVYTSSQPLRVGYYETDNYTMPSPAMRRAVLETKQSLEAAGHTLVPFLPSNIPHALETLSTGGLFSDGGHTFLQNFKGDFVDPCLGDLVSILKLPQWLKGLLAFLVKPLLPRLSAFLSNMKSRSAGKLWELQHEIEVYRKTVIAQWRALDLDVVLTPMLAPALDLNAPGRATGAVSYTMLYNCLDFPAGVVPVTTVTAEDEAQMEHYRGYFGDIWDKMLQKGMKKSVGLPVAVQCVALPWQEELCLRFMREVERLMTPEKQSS
Procedure: Screening for FAAH Activity-Inhibiting Substance with Human Bladder Epithelial Cancer-Derived Cell
(1) Screening for FAAH Activity-Inhibiting Substance:
Human bladder epithelial cancer-derived cell line […] cells (HTB-9; ATCC) were seeded on a 48-well cell culture plate in an amount of 1×10^5 cell/well, using 10% fetal bovine serum (HyClone)-containing RPMI1640 medium (Invitrogen). After incubated at 37° C. for at least 12 hours, the cells were washed with 400 μl/well of a buffer (Hank's Balanced Salt Solution, 20 mM Hepes-NaOH (pH 7.4)). A test substance dissolved in DMSO was added to a substrate solution (the above buffer containing 3 μCi/ml radiolabeled anandamide (Anandamide [ethanolamine 1-3H]) and 10 μM anandamide) so as to have a concentration of from 0.003 nM to 30 nM. As a control, DMSO alone was added. 100 μl/well of the substrate solution was added to the above cells, and incubated in a CO2 incubator at 37° C. for 30 minutes. Next, the cell culture plate was transferred onto ice, and the substrate solution was removed by suction; and 75 μl/well of a cytolytic solution (the above buffer containing 0.5% Triton X-100, and 10 μM of FAAH-inhibitory activity-having compound, 3′-carbamoylbiphenyl-3-yl cyclohexylcarbamate (URB597; Cayman chemical; Kathuria et al., Nature Med., Vol. 9, pp. 76-81, 2003)) was added thereto, followed by stirring. The resulting cell lysate in every well was individually transferred into a 1.5 ml sample tube, to which was added 150 μl of 1:1 (by volume) chloroform/methanol solution, followed by vortexing. This was centrifuged (15000 rpm, 2 minutes), whereby the decomposed product, ethanolamine (ethanolamine 1-^3H) was separated in the upper layer (water/methanol layer) and the unreacted radiolabeled anandamide was in the lower layer (chloroform layer). 25 μl of the upper layer was transferred into a 96-well organic solvent-resistant white microplate (PicoPlate-96; Perkin Elmer), 150 μl of Microscint-20 (Perkin Elmer) was added thereto, and this was measured with a microplate scintillation counter (TopCount™; Beckman). As compared with the control, the substance that gave a decreased value was selected as an FAAH activity-inhibiting substance.
(2) Measurement of IC50 Value of FAAH Activity-Inhibiting Substance:
A test compound dissolved in DMSO to have a concentration of 10 mM was dissolved in the substrate solution so as to have a varying concentration of from 0.003 nM to 30 μM. According to the method mentioned above, the compound was analyzed for its influence on FAAH activity. As a negative control, DMSO was used. As a positive control, URB597 was added to the substrate solution to have a concentration of 10 μM. Based on the measured value of the positive control, 0%, and on the measured value of the negative control, 100%, IC50 value of the test substance was obtained.

[2] = system: CPA-induced urinary frequency in rat; assay: animal or person; format: in vivo; settings: po, 48 h, read-out: effective dose (increase of reduced effective bladder capacity)

Row | Compound | IC50 [1] [nM] | minimal effective dose [2] [mg/kg] | IC50 ([1]; human bladder epithelial cancer-derived cell line 5678 cells, read-out: cell FAAH IC50) [nM]
1 | O=C(Oc1cccnc1)N1CCN(C(=O)c2cccc(OCc3cccc(Cl)c3)c2)CC1 [Example 138] | 0.078 |  | 
2 | O=C(O)C(=O)O.O=C(O)C1CCN(c2cncc(OC(=O)N3CCC(Oc4ccc(OCc5cccc(F)c5)cc4)CC3)c2)CC1 [Example 261, 1-(5-{[(4-{4-[(3-fluorobenzyl)oxy]phenoxy}piperidin-1-yl)carbonyl]oxy}pyridin-3-yl)piperidine-4-carboxylic acid oxalate] | 0.54 | 3 | 
3 | CN(C)c1cncc(OC(=O)N2CCC(Oc3ccc(OCc4cccc(F)c4)cc3)CC2)c1 [Example 30] | 0.19 |  | 
4 | NC(=O)c1cncc(OC(=O)N2CCC(CCc3cccc(-c4ccccn4)c3)CC2)c1 [Example 349] | 0.054 |  | 
5 | CN(C)C(=O)c1cccc(CCC2CCN(C(=O)Oc3cncc(C(N)=O)c3)CC2)c1 [Example 325] | 0.54 | 1 | 
6 | Cc1cccc(N2CCC(CCCC3CCN(C(=O)Oc4cncc(C(=O)O)c4)CC3)CC2)n1 [Example 313] | 0.89 | 1 | 
7 | O=C(Oc1cccnc1)N1CCC(Oc2ccc(OCc3cccc(F)c3)cn2)CC1 [Example 103] | 0.092 |  | 
8 | NC(=O)c1cncc(OC(=O)N2CCC(CCc3ccc(-c4cccc(F)c4)cc3)CC2)c1 [Example 345] | 0.18 |  | 
9 | CCCCCCCCc1ccc(NC(=O)C2CCN(C(=O)Oc3cccnc3)CC2)cc1 [Example 176] | 0.84 |  | 
10 | O=C(Oc1cccnc1)N1CCC(Oc2ccc(OCCC3CCCCC3)cc2)CC1 [Example 207] | 0.31 |  | 
11 | COc1ccc(-c2ccc(CCC3CCN(C(=O)Oc4cncc(C(=O)O)c4)CC3)cc2)cc1 [Example 300] | 0.43 |  | 
12 | O=C(Oc1cccnc1)N1CCC(Oc2ccc(OCc3ccccc3)cc2Cl)CC1 [Example 51] | 0.26 |  | 
13 | O=C(Oc1cccnc1)N1CCC(Oc2ccc(OCc3ccccc3)c(Cl)c2)CC1 [Example 70] | 0.099 |  | 
14 | NC(=O)c1cncc(OC(=O)N2CCC(CCc3cccc(-c4ccccc4)c3)CC2)c1 [Example 340] | 0.052 |  | 
15 | O=C(Oc1cccnc1)N1CCC(S(=O)(=O)c2ccc(OCc3ccccc3)cc2)CC1 [Example 88] | 0.37 |  | 
16 | O=C(Oc1cccnc1)N1CCN(C(=O)c2ccc(OCc3cccc([N+](=O)[O-])c3)cc2)CC1 [Example 154] | 0.17 |  | 
17 | O=C(Oc1cccnc1)N1CCC(Oc2ccc(OCc3cccc(Cl)c3)cc2)CC1 [Example 206, 3-pyridyl 4-{4-[(3-chlorobenzyl)oxy]phenoxy}-1-piperidinecarboxylate hydrochloride] | 0.17 |  | 
18 | NC(=O)c1cncc(OC(=O)N2CCC(CCc3cccc(C(=O)NC4CCCCC4)c3)CC2)c1 [Example 351] | 0.13 |  | 
19 | CCN(CC)C(=O)c1ccc(CCC2CCN(C(=O)Oc3cncc(C(N)=O)c3)CC2)cc1 [Example 362] | 0.42 |  | 
20 | O=C(O)c1cncc(OC(=O)N2CCC(CCc3ccc(-c4cccc(F)c4)cc3)CC2)c1 [Example 302] | 0.17 |  | 
21 | O=C(Oc1cccnc1)N1CCN(C(=O)c2ccc(OCCc3cccc(Cl)c3)cc2)CC1 [Example 160] | 0.51 |  | 
22 | O=C(Oc1cccnc1)N1CCC(S(=O)(=O)c2ccc(OCc3cccc(F)c3)cc2)CC1 [Example 80] | 0.044 |  | 
23 | O=C(O)c1cncc(OC(=O)N2CCC(CCc3cccc(-c4ccccc4)c3)CC2)c1 [Example 293] | 0.24 |  | 
24 | O=C(Oc1cccnc1)N1CCC(c2cccc(OCCCc3ccccc3)c2)CC1 [Example 113] | 0.056 |  | 
25 | NC(=O)c1cccc(-c2cncc(OC(=O)N3CCC(CCc4ccccc4)CC3)c2)c1 [Example 266] | 0.31 |  | 
26 | O=C(Oc1cncc(Cl)c1)N1CCC(Oc2ccc(OCc3cccc(F)c3)cc2)CC1 [Example 42] | 0.43 |  | 
27 | Cc1cccc(N2CCC(CCCC3CCN(C(=O)Oc4cncc(C(N)=O)c4)CC3)CC2)n1 [Example 378] | 0.2 |  | 

Row | Compound | IC50 [1] [nM] | minimal effective dose [2] [mg/kg] | IC50 ([1]; human bladder epithelial cancer-derived cell line 5678 cells, read-out: cell FAAH IC50) [nM]
28 | N#Cc1cccc(-c2cccc(CCC3CCN(C(=O)Oc4cncc(C(=O)O)c4)CC3)c2)c1 [Example 294] | 0.6 |  | 
29 | N#Cc1cccc(-c2cccc(CCC3CCN(C(=O)Oc4cncc(C(N)=O)c4)CC3)c2)c1 [Example 341] | 0.078 |  | 
30 | NC(=O)c1cncc(OC(=O)N2CCC(CCCC3CCN(c4ccc5ccccc5n4)CC3)CC2)c1 [Example 380] | 0.35 |  | 
31 | O=C(O)c1cncc(OC(=O)N2CCC(CCc3ccc(-c4ccccc4F)cc3)CC2)c1 [Example 304] | 0.24 |  | 
32 | O=C(O)c1cncc(OC(=O)N2CCC(CCCC3CCN(c4ccc5ccccc5n4)CC3)CC2)c1 [Example 315] | 0.51 |  | 
33 | COc1cccc(CCC2CCN(C(=O)Oc3cncc(C(=O)NCCO)c3)CC2)c1 [Example 328] | 0.42 |  | 
34 | COc1cccc(-c2ccc(CCC3CCN(C(=O)Oc4cncc(C(=O)O)c4)CC3)cc2)c1 [Example 303] | 0.12 |  | 
35 | N#Cc1ccc(-c2ccc(CCC3CCN(C(=O)Oc4cncc(C(=O)O)c4)CC3)cc2)cc1 [Example 301] | 0.4 |  | 
36 | NC(=O)c1cncc(OC(=O)N2CCC(CCc3ccc(-c4ccccc4F)cc3)CC2)c1 [Example 346] | 0.27 |  | 
37 | CC(C)NC(=O)c1cccc(CCC2CCN(C(=O)Oc3cncc(C(N)=O)c3)CC2)c1 [Example 372] | 0.49 |  | 
38 | N#Cc1cccc(CCC2CCN(C(=O)Oc3cncc(C(=O)NCCO)c3)CC2)c1 [Example 330] | 0.53 |  | 
39 | O=C(Oc1cccnc1)N1CCN(C(=O)c2ccc(OCc3cccc(C(F)(F)F)c3)cc2)CC1 [Example 149] | 0.45 |  | 
40 | CC(=O)OCc1cncc(OC(=O)N2CCC(Oc3ccc(OCc4cccc(F)c4)cc3)CC2)c1 [Example 100] | 0.035 |  | 
41 | NC(=O)c1cncc(OC(=O)N2CCC(CCc3ccc(-c4ccc(F)cc4)cc3)CC2)c1 [Example 338] | 0.034 |  | 
42 | N#Cc1ccc(-c2ccc(CCC3CCN(C(=O)Oc4cncc(C(N)=O)c4)CC3)cc2)cc1 [Example 344] | 0.13 |  | 
43 | O=C(Oc1cccnc1)N1CCN(C(=O)c2ccc(OCc3ccc(F)cc3)cc2)CC1 [Example 155] | 0.061 |  | 
44 | O=C(Oc1cccnc1)N1CCN(C(=O)c2cccc(OCC3CCCCC3)c2)CC1 [Example 122] | 0.15 |  | 
45 | NC(=O)CCNC(=O)c1cncc(OC(=O)N2CCC(CCc3ccccc3)CC2)c1 [Example 333] | 0.43 |  | 
46 | O=C(Oc1cccnc1)N1CCC(Oc2ccc(OCc3ccccc3F)cc2)CC1 [Example 208] | 0.13 |  | 
47 | Cc1ccc(OC(=O)N2CCC(Oc3ccc(OCc4cccc(F)c4)cc3)CC2)cn1 [Example 13] | 0.27 |  | 
48 | O=C(O)c1cncc(OC(=O)N2CCC(CCc3ccc(-c4ccccc4)cc3)CC2)c1 [Example 281] | 0.082 |  | 
49 | COC(=O)CCc1cncc(OC(=O)N2CCC(Oc3ccc(OCc4cccc(F)c4)cc3)CC2)c1 [Example 61] | 0.35 |  | 
50 | O=C(Oc1cccnc1)N1CCC(Sc2cccc(OCc3cccc(F)c3)c2)CC1 [Example 101] | 0.078 |  | 
51 | O=C(Nc1ccccc1)C1CCN(C(=O)Oc2cccnc2)CC1 [Example 173] |  |  | 0.69
52 | O=C(Oc1cccnc1)N1CCN(C(=O)c2ccc(OCc3cc(F)cc(F)c3)cc2)CC1 [Example 152] | 0.18 |  | 
53 | O=C(c1ccc(OCc2cccc(F)c2)cc1)C1CCN(C(=O)Oc2cccnc2)CC1 [Example 3] | 0.073 |  | 
54 | O=C(Oc1cccnc1)N1CCN(C(=O)c2ccc(OCc3cccc(Br)c3)cc2)CC1 [Example 159] | 0.23 |  | 
